Measured values: patent US20240132431A1, “METHOD FOR ALKYLATING ACIDIC FUNCTIONAL GROUP” (Chugai Seiyaku Kabushiki Kaisha, priority 2021, published 2024)

Biological target: T1, Bcl-2 protein (Recombinant Human Bcl-2 Protein) (Homo sapiens, UniProt P10415)
T1 construct: purchased Novus NBP2-34889
Experiment: Binding evaluation of mixture library compounds to Bcl-2 using AS-MS (affinity selection mass spectrometry)
Details: for ASMS ratio (%) n = 1 / ASMS ratio (%) n = 2: ASMS Ratio(%)=(A−C)/B×100; for ASMS ratio (%) n = 1: replicate n = 1; for ASMS ratio (%) n = 2: replicate n = 2
Method in brief: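 Readout is ASMS Ratio (%), (A−C)/B×100, from reversed-phase LC/MS of SEC-passed extracts, with protein-free unfiltered standard (B) and protein-free SEC blank (C). Recombinant human Bcl-2 at 20 μM final met ~1200 pooled compounds at […] each for 1 h, 23° C., dark, in Tris-HCl pH 7.4 buffer.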

[1] = AS-MS, mixture of 1200 compounds, Bcl-2
[2] = AS-MS on the mixture of 1200 library compounds

T1 sequence (P10415 whole entry): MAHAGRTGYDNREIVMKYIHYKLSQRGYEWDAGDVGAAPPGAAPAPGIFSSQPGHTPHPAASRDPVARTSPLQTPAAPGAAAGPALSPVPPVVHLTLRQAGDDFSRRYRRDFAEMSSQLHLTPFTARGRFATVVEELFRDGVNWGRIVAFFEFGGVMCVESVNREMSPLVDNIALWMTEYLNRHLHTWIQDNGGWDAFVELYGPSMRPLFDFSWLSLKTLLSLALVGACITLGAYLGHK

In the case of CCOc1cncc(-c2cc(CN3CCN(c4ccc(C(=O)NS(=O)(=O)CCC(F)(F)F)nn4)CC3)cc(C(F)(F)F)c2)c1 [B2N088-01, 6-[4-[3-(5-Ethoxypyridin-3-yl)-5-(trifluoromethyl)phenylmethyl]piperazin-1-yl]-N-(3,3,3-trifluoropropylsulfonyl)pyridazine-3-carboxamide], the “ASMS ratio (%)” value (n = 1) is reported as 0.0% and the “ASMS ratio (%)” value (n = 2) is reported as 0.0%.

CCOc1cncc(-c2cnn(-c3cc(C(=O)N4CCN(c5ccc(C(=O)NS(C)(=O)=O)cc5)CC4)cc(C(F)(F)F)c3)c2)c1 [B2I044-01, 4-[4-[3-[4-(5-Ethoxypyridin-3-yl)pyrazol-1-yl]-5-(trifluoromethyl)benzoyl]piperazin-1-yl]-N-methylsulfonylbenzamide] was tested, and the “ASMS ratio (%)” value (n = 1) was 0.0% and the “ASMS ratio (%)” value (n = 2) was 0.0%.

With CCOc1cccc(-c2ccc(CN3CCN(c4ccc(C(=O)NCC56CC7CC(CC(C7)C5)C6)cc4)CC3)cc2F)c1 [B1A051-01, N-(1-Adamantylmethyl)-4-[4-[[4-(3-ethoxyphenyl)-3-fluorophenyl]methyl]piperazin-1-yl]benzamide] the “ASMS ratio (%) n = 1” value [1] was −5.4% and the “ASMS ratio (%) n = 2” value [1] was −4.2%.

CCOc1cccc(-c2ccc(C(=O)N3CCN(c4ccc(C(=O)NS(=O)(=O)C(C)(C)C)nn4)CC3)cc2C)c1 [B2L003-01, N-tert-Butylsulfonyl-6-[4-[4-(3-ethoxyphenyl)-3-methylbenzoyl]piperazin-1-yl]pyridazine-3-carboxamide] was tested, and the “ASMS ratio (%)” value (n = 1) was 0.0% and the “ASMS ratio (%)” value (n = 2) was 0.0%.

In the case of CCOc1cncc(-c2ccc(C(=O)N3CCN(c4ccc(C(=O)NCC56CC7CC(CC(C7)C5)C6)nn4)CC3)cc2C)c1 [B1A004-01, N-(1-Adamantylmethyl)-6-[4-[4-(5-ethoxypyridin-3-yl)-3-methylbenzoyl]piperazin-1-yl]pyridazine-3-carboxamide], the “ASMS ratio (%) n = 1” value [1] is reported as −6.2% and the “ASMS ratio (%) n = 2” value [1] is reported as 2.6%.

With CCOc1cncc(-c2cc(CN3CCN(c4ccc(C(=O)N(CC)CC)nn4)CC3)cc(OC(C)C)c2)c1 [B4J084-01, 6-[4-[[3-(5-Ethoxypyridin-3-yl)-5-propan-2-yloxyphenyl]methyl]piperazin-1-yl]-N,N-diethylpyridazine-3-carboxamide] the “ASMS ratio (%) n = 1” value (AS-MS, mixture library, Bcl-2) was 0.0% and the “ASMS ratio (%) n = 2” value (AS-MS, mixture library, Bcl-2) was −0.6%.

With CCOc1cncc(-c2csc(CN3CCN(c4ccc(C(=O)NS(C)(=O)=O)cc4)CC3)c2)c1 [B2I068-01] the “ASMS ratio (%)” value (n = 1) was 0.0% and the “ASMS ratio (%)” value (n = 2) was 0.0%.

With CCOc1cncc(-c2ccc(CN3CCN(c4ccc(C(=O)NS(=O)(=O)c5ccc(NCCSc6ccccc6)c([N+](=O)[O-])c5)nn4)CC3)cc2F)c1 [B2Q078-01] the “ASMS ratio (%) n = 1” value (AS-MS, mixture library, Bcl-2) was 15.6% and the “ASMS ratio (%) n = 2” value (AS-MS, mixture library, Bcl-2) was 12.1%.

For CCOc1cccc(-c2ccc(C(=O)N3CCN(c4ccc(C(=O)NS(=O)(=O)C(C)(C)C)cc4)CC3)c3ccccc23)c1 [B2L035-01, N-tert-Butylsulfonyl-4-[4-[4-(3-ethoxyphenyl)naphthalene-1-carbonyl]piperazin-1-yl]benzamide], the “ASMS ratio (%)” value (n = 1) was 0.0%.

With CCOc1cccc(C#Cc2ccccc2CN2CCN(c3ccc(C(=O)NS(=O)(=O)CCC(F)(F)F)nn3)CC2)c1 [B2N095-01, 6-[4-[[2-[2-(3-Ethoxyphenyl)ethynyl]phenyl]methyl]piperazin-1-yl]-N-(3,3,3-trifluoropropylsulfonyl)pyridazine-3-carboxamide] the “ASMS ratio (%)” value (n = 1) was 0.0% and the “ASMS ratio (%)” value (n = 2) was 0.0%.

With CCOc1cncc(-c2ccc(CN3CCN(c4ccc(C(=O)NS(C)(=O)=O)cc4)CC3)cc2C)c1 [B2I048-01, 4-[4-[[4-(5-Ethoxypyridin-3-yl)-3-methylphenyl]methyl]piperazin-1-yl]-N-methylsulfonylbenzamide] the “ASMS ratio (%)” value (n = 1) was 0.0% and the “ASMS ratio (%)” value (n = 2) was 0.0%.

CCOc1cncc(-c2ccc(CN3CCN(c4ccc(C(=O)NCC56CC7CC(CC(C7)C5)C6)nn4)CC3)cc2C)c1 [B1A074-01, N-(1-Adamantylmethyl)-6-[4-[[4-(5-ethoxypyridin-3-yl)-3-methylphenyl]methyl]piperazin-1-yl]pyridazine-3-carboxamide] was tested, and the “ASMS ratio (%) n = 1” value [1] was 3.2% and the “ASMS ratio (%) n = 2” value [1] was −0.1%.

In the case of CCOc1cccc(C#Cc2cncc(C(=O)N3CCN(c4ccc(C(=O)N(CC)CC)cc4)CC3)c2)c1 [B4J031-01, 4-[4-[5-[2-(3-Ethoxyphenyl)ethynyl]pyridine-3-carbonyl]piperazin-1-yl]-N,N-diethylbenzamide], the “ASMS ratio (%) n = 1” value [2] is reported as 0.1% and the “ASMS ratio (%) n = 2” value [2] is reported as 0.8%.

CCOc1cncc(-c2cnn(-c3cc(C(=O)N4CCN(c5ccc(C(=O)NS(=O)(=O)c6ccc(NCCSc7ccccc7)c(C(F)(F)F)c6)nn5)CC4)cc(C(F)(F)F)c3)c2)c1 [B2R022-01, 6-[4-[3-[4-(5-Ethoxypyridin-3-yl)pyrazol-1-yl]-5-(trifluoromethyl)benzoyl]piperazin-1-yl]-N-[4-(2-phenylsulfanylethylamino)-3-(trifluoromethyl)phenyl]sulfonylpyridazine-3-carboxamide] was tested, and the “ASMS ratio (%)” value (n = 1) was 14.5% and the “ASMS ratio (%)” value (n = 2) was 15.8%.

CCOc1cccc(-c2ccc(CN3CCN(c4ccc(C(=O)NCC(F)(F)F)cc4)CC3)c(OC)c2)c1 [B1K053-01] was tested, and the “ASMS ratio (%) n = 1” value [1] was −0.5% and the “ASMS ratio (%) n = 2” value [1] was −3.3%.

“6-[4-[5-[2-(5-Ethoxypyridin-3-yl)ethynyl]pyridine-3-carbonyl]piperazin-1-yl]-N-propylpyridazine-3-carboxamide [B1M056-01]” was tested, and the “ASMS ratio (%) n = 1” value [1] was 0.5% and the “ASMS ratio (%) n = 2” value [1] was 0.0%.

In the case of “6-[4-[[4-(3-Ethoxyphenyl)-2-methoxyphenyl]methyl]piperazin-1-yl]-N-propylpyridazine-3-carboxamide [B1M094-01]”, the “ASMS ratio (%) n = 1” value [2] is reported as −1.5% and the “ASMS ratio (%) n = 2” value [2] is reported as −2.1%.

CCOc1cccc(-c2cc(C(=O)N3CCN(c4ccc(C(=O)N(CC)CC)nn4)CC3)cc(C(C)(C)C)c2)c1 [B4J015-01, 6-[4-[3-tert-Butyl-5-(3-ethoxyphenyl)benzoyl]piperazin-1-yl]-N,N-diethylpyridazine-3-carboxamide] was tested, and the “ASMS ratio (%) n = 1” value [2] was 0.0% and the “ASMS ratio (%) n = 2” value [2] was 0.0%.

CCOc1cncc(-c2cc(CN3CCN(c4ccc(C(=O)NS(=O)(=O)CCC(F)(F)F)nn4)CC3)cc(OCC)c2)c1 [B2N082-01] was tested, and the “ASMS ratio (%)” value (n = 1) was 2.5% and the “ASMS ratio (%)” value (n = 2) was 2.8%.

CCOc1cncc(-c2ccc(CN3CCN(c4ccc(C(=O)NS(=O)(=O)CCC(F)(F)F)cc4)CC3)cc2F)c1 [B2N052-01, 4-[4-[[4-(5-Ethoxypyridin-3-yl)-3-fluorophenyl]methyl]piperazin-1-yl]-N-(3,3,3-trifluoropropylsulfonyl)benzamide] was tested, and the “ASMS ratio (%)” value (n = 1) was 0.0% and the “ASMS ratio (%)” value (n = 2) was −0.5%.

For CCOc1cccc(-c2ccc(C(=O)N3CCN(c4ccc(C(=O)NS(=O)(=O)C(C)(C)C)nn4)CC3)c3ccccc23)c1 [B2L013-01, N-tert-Butylsulfonyl-6-[4-[4-(3-ethoxyphenyl)naphthalene-1-carbonyl]piperazin-1-yl]pyridazine-3-carboxamide], the “ASMS ratio (%)” value (n = 1) was 0.0% and the “ASMS ratio (%)” value (n = 2) was 0.0%.

For CCOc1cncc(-c2ccccc2CN2CCN(c3ccc(C(=O)NCC(F)(F)F)cc3)CC2)c1 [B1K046-01, 4-[4-[[2-(5-Ethoxypyridin-3-yl)phenyl]methyl]piperazin-1-yl]-N-(2,2,2-trifluoroethyl)benzamide], the “ASMS ratio (%) n = 1” value [1] was −0.1% and the “ASMS ratio (%) n = 2” value [1] was 0.5%.

In the case of CCOc1cccc(-c2ccc(CN3CCN(c4ccc(C(=O)NS(=O)(=O)c5ccc(NCCSc6ccccc6)c([N+](=O)[O-])c5)cc4)CC3)c3ccccc23)c1 [B2Q065-01], the “ASMS ratio (%) n = 1” value (AS-MS, mixture library, Bcl-2) is reported as 30.6% and the “ASMS ratio (%) n = 2” value (AS-MS, mixture library, Bcl-2) is reported as −1.6%.

In the case of CCOc1cncc(-c2ccc(CN3CCN(c4ccc(C(=O)N(CC)CC)cc4)CC3)cc2F)c1 [B4J052-01], the “ASMS ratio (%) n = 1” value [2] is reported as 0.5% and the “ASMS ratio (%) n = 2” value [2] is reported as −1.5%.

In the case of CCOc1cncc(-c2ccc(C(=O)N3CCN(c4ccc(C(=O)NS(C)(=O)=O)nn4)CC3)c3ccccc23)c1 [B2I014-01, 6-[4-[4-(5-Ethoxypyridin-3-yl)naphthalene-1-carbonyl]piperazin-1-yl]-N-methylsulfonylpyridazine-3-carboxamide], the “ASMS ratio (%) n = 1” value (AS-MS, mixture library, Bcl-2) is reported as 1.0% and the “ASMS ratio (%) n = 2” value (AS-MS, mixture library, Bcl-2) is reported as 2.3%.

With CCOc1cncc(C#Cc2cncc(C(=O)N3CCN(c4ccc(C(=O)NS(=O)(=O)c5ccc(NCCSc6ccccc6)c([N+](=O)[O-])c5)nn4)CC3)c2)c1 [B2Q010-01, 6-[4-[5-[2-(5-Ethoxypyridin-3-yl)ethynyl]pyridine-3-carbonyl]piperazin-1-yl]-N-[3-nitro-4-(2-phenylsulfanylethylamino)phenyl]sulfonylpyridazine-3-carboxamide] the “ASMS ratio (%) n = 1” value (AS-MS, mixture library, Bcl-2) was 13.3% and the “ASMS ratio (%) n = 2” value (AS-MS, mixture library, Bcl-2) was 8.9%.

In the case of CCOc1cncc(-c2ccc(C(=O)N3CCN(c4ccc(C(=O)NS(=O)(=O)c5ccc(NCCSc6ccccc6)c([N+](=O)[O-])c5)cc4)CC3)cc2F)c1 [B2Q028-01, 4-[4-[4-(5-Ethoxypyridin-3-yl)-3-fluorobenzoyl]piperazin-1-yl]-N-[3-nitro-4-(2-phenylsulfanylethylamino)phenyl]sulfonylbenzamide], the “ASMS ratio (%) n = 1” value (AS-MS, mixture library, Bcl-2) is reported as 0.0% and the “ASMS ratio (%) n = 2” value (AS-MS, mixture library, Bcl-2) is reported as −3.7%.

With CCOc1cccc(-c2cc(CN3CCN(c4ccc(C(=O)NS(=O)(=O)C(C)(C)C)cc4)CC3)cc(OC(C)C)c2)c1 [B2L057-01, N-tert-Butylsulfonyl-4-[4-[[3-(3-ethoxyphenyl)-5-propan-2-yloxyphenyl]methyl]piperazin-1-yl]benzamide] the “ASMS ratio (%)” value (n = 1) was 0.0% and the “ASMS ratio (%)” value (n = 2) was 0.0%.
